US9566261B2 (priority 2013, dated 2017)

System: lithium-pilocarpine treated rats
Experiment: Morris water maze using pilocarpine-induced status epilepticus (SE)
Type: in vivo
From the text: To assess spatial memory and learning in lithium-pilocarpine treated animals and to identify novel compounds that might ameliorate cognitive deficits and neuronal loss associated with pilocarpine-induced status epilepticus (SE). Morris water maze has been used extensively in the study of learning and memory. This test uses a round pool of water in which an escape platform is submerged beneath the surface. The task is to find the hidden platform using only extra maze visual cues (Morris, 1984). Learning can be assessed by quantifying the time that an animal takes to find the platform (latency) over a number of independent trials. […]
Twenty four hours prior to pilocarpine administration, rats were weighed and given lithium chloride (127 mg/kg; i.p.). On the next day, they received pilocarpine hydrochloride (50 mg/kg; i.p.) and were monitored carefully for behavioral seizures. […] All animals were observed and scored for seizure severity for an additional 1.5 hr. […] In our spatial learning protocol rats, received 4 training trials per day wherein the outcome measure evaluated was their ability to find the hidden platform. […] On each of the trials, rats were placed in the water facing the wall at one of the 4 randomly determined starting locations (north, west, east or south) and allowed 120 sec to find the platform. […]

C[C@H](OC(N)=O)[C@@H](O)c1ccccc1Cl [Compound 1, 1-(2-chlorophenyl)-(S)-1-hydroxypropyl-(S)-2-carbamate]
average time to find the escape platform (latency) (65 mg/kg i.p. 15 minutes after the first stage 3 seizure, vs pilocarpine alone group, FIG. 3): significant difference in the Pilo+Compound 1 group as compared to the pilocarpine alone group | mortality (125 mg/kg administered 30 min after the first convulsive seizure): death of all animals
